Assay results: publication PMC10223284, “Category-Based Toxicokinetic Evaluations of Data-Poor Per- and Polyfluoroalkyl Substances (PFAS) using Gas Chromatography Coupled with Mass Spectrometry” (Toxics, 2023)
“And” between values parts separate entries of the source, which are not always exact repeats. Equal entries are not always repeated. Where two headings read alike, the source gives them in different places.

Key:
human plasma [1] = settings: for PPB_Stab_Fail: plasma
human primary cells = settings: cited from earlier work
in vitro [2] = settings: both, human, plasma
[3] = In vitro-in vivo extrapolation (IVIVE) to Css and administered equivalent dose (AED); design: species or system human; settings: for Clhep: IVIVE, hepatocyte Clint scaled to whole-liver clearance; for AED: administered equivalent dose from LOEC and Css; for Fub: fub=fup/(B:P), Fub set to 1 if needed; for CLint: scaled with HPGL 110 mill cells/g, Vl 1596 g
Summary of the method: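 Administered equivalent doses come from pairing modelled Css with literature in vitro LOECs. Css itself is predicted by IVIVE from experimental hepatic Clint, scaled up to whole-liver clearance in L/h, and experimental fraction unbound in plasma. That fraction was adjusted to unbound-in-blood via blood:plasma partitioning.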

[4] = Abiotic loss in negative controls of the hepatocyte clearance assay (cell-free media, metabolically inactivated hepatocytes); type: in vitro ADME
Summary of the method: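 Abiotic stability was checked with media-only and inactivated-hepatocyte controls, run at T0 and T240 or, on rerun, at more time points. Compound at 1 μM, 37 °C, acetonitrile quench. Loss rates served for background subtraction, and ≥50% loss by T120 meant exclusion.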

human plasma [5] = settings: for Fup.Med / Fup.point: both, human, 5 h, 10 μM
[6] = Hepatic metabolic stability (hepatocyte clearance) assay, substrate depletion; type: in vitro ADME, human; settings: both sexes, human
Summary of the method: (§1)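 Substrate depletion of 1 μM compound, 37 °C, with pooled human hepatocytes (50-donor, 50,000 cells/100 μL) in William's E; samples quenched in acetonitrile up to 240 min, triplicate time points. Intrinsic clearance (μL/min/million hepatocytes) and half-life derived from semi-log slope, background-adjusted using media-only and inactivated-cell controls; compounds with ≥50% abiotic loss at T120 excluded.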

[7] = tested on: pooled human cryopreserved primary hepatocyte suspensions; assay: as above; type: in vitro ADME
Summary of the method: as §1

in vitro [8] = settings: both, human, plasma; remark: listed apart in the source
[9] = Chemical stability in plasma over the UC assay time course (T5hr/T1hr); settings: both, human, plasma
human plasma [10] = assay: as above; settings: for PPB_Stab_Fail: flag for stability failure in the plasma protein binding assay (1 = fail, 0 = pass); for Fstable.Med: median fraction stable in plasma, UC assay Level4
[11] = Ultracentrifugation (UC) plasma protein binding assay, fraction unbound in plasma (fup); settings: both, human, plasma
human plasma [12] = assay: as above; settings: for Fup.Med: median fraction unbound in plasma; for Fup.Med / Fup.point: UC assay Level4; for Fup.point: point estimate of fraction unbound in plasma; for Mean fu: fraction unbound in human plasma, used for IVIVE
human plasma [13] = settings: cited from earlier work
[14] = tested on: pooled human cryopreserved primary hepatocyte suspensions; settings: cited from earlier work
[15] = BioSeek lowest-observed effect concentration used for AED
[16] = minimum lowest-observed effect concentration, BioSeek platform
[17] = Assuming 1 mg/kg/day dose rate, BW 70 kg
[18] = human steady-state plasma concentration, assuming 1 mg/kg/day dosage
[19] = flag for stability failure in hepatocyte clearance assay controls (1 or Fst = fail, 0 = pass)
[20] = legacy PFAS included for comparison

OCC(F)(F)OC(F)(F)C(F)(F)OC(F)(F)C(F)(F)OC(F)(F)CO [1H,1H,11H,11H-Perfluorotetraethylene glycol]
Fstable.Med (human plasma [1]; both, human, 5 h, 10 μM): 0.989 | Mean Stability (human plasma [1]; both, human, 5 h, 10 μM): 1.051 | Stability (T5hr/ T1hr), Run-specific Avg (human plasma [1]; both, human, 5 h, 10 μM): 0.998 | PPB_Stab_Fail (human plasma [1]; both, human, 5 h, 10 μM): 0 | LOEC (human primary cells; [15]): 2.00 µM | LOEC (human primary cells; [16]): 2 µM | fraction unbound at 5 h, 10 μM (in vitro [2]; Fraction Unbound (fu), replicates A, B, C): 0.0147 | fraction unbound at 5 h, 10 μM (in vitro [2]; Mean Fu): 0.013 | fraction unbound at 5 h, 10 μM (in vitro [2]; Mean fu): 0.0128 | Css [3, 17]: 0.61 mg/L and 1.50 uM | Clhep [3]: 4.634 L/h | AED [3]: 1.3364 mg/kg/day | Fub [3]: 0.02327 | Css [3, 18]: 1.50 µM | CLint [3]: 3498911 µL/min | No Cells BkgdCl, Clearance ([4]; 1 μM): 4.374 | half-life at 1 μM ([4]; both sexes, human, hepatocytes): 4.08 h | HT BkgdCl, Clearance ([4]; both, human, 1 μM): 5.666 | Hep_Stab_Fail ([4]; both, human, 120 min, 1 μM): 0 | half-life at 1 μM ([4]; buffer): 5.28 h | HT BkgdCl, Slope ([4]; heat treated hepatocytes control, 0 vs 240 min): -0.002833 | No Cells BkgdCl, Slope ([4]; no cells control, 0 vs 240 min): -0.002187 | Fup.Med (human plasma [5]): 0.0115 | Fup.point (human plasma [5]): 0.0127 | half-life at 1 μM ([6]; hepatocytes): 0.951 h | hepatocyte CLint at 1 μM ([6]; hepatocytes, Bkgd-Sub Clearance (µL/min/106 hepatocytes)): 19.9 µL/min/1e6 cells | hepatocyte CLint at 1 μM ([6]; hepatocytes, In Vitro Clint): 19.9 µL/min/1e6 cells | hepatocyte CLint at 1 μM ([6]; hepatocytes, Linear Regression Results, Best-Fit Values, Clearance): 24.3 µL/min/1e6 cells | hepatocyte CLint at 1 μM ([6]; hepatocytes, Unadj Clint): 24.3 µL/min/1e6 cells | hepatocyte CLint at 1 μM ([6]; hepatocytes, Unadj in vitro Clint): 24.3 µL/min/1e6 cells | hepatocyte CLint at 1 μM ([6]; hepatocytes, clearance rate in hepatocytes): 20 µL/min/1e6 cells | hepatocyte CLint at 1 μM ([6]; s9, Clint.1.Med): 5.23 µL/min/1e6 cells | Concentration (nM), Time 240 min ([7]; both, human, 240 min, 1 μM): 88.3883 nM | Linear Regression Results, Best-Fit Values, Slope ([7]; hepatocyte time course): -0.01215

C=CC(=O)OCC(F)(F)C(F)F [2,2,3,3-Tetrafluoropropyl acrylate]
Unstable (human plasma [1]): Y | Fstable.Med (human plasma [1]; both, human, 5 h, 10 μM): 0.000712 | PPB_Stab_Fail (human plasma [1]; both, human, 5 h, 10 μM): 1 | remaining at 5 h, 10 μM (in vitro [8]): 0% | Hep_Stab_Fail ([4]; both, human, 120 min, 1 μM): 1 | Uncertain (human plasma [5]): Y | Fup.Med (human plasma [5]): 1.93E-08 | Fup.point (human plasma [5]): 0.234

NC(O)(C(F)(F)F)C(F)(F)F [2-Aminohexafluoropropan-2-ol]
remaining at 5 h, 10 μM [9]: 76% | Stability (T5hr/ T1hr), Run-specific Avg (human plasma [10]; average of one UC run (run date in line above)): 0.77 and 0.751 | PPB_Stab_Fail (human plasma [10]): 0 | Mean Stability (human plasma [10]; mean T5hr/T1hr ratio over all replicates and runs, plasma): 0.76 | Fstable.Med (human plasma [10]): 0.225 | Stability (T5hr/ T1hr), replicates A, B, C (human plasma [10]; single replicate of one UC run): 0.60 and 0.78 and 0.93 and 0.61 and 0.77 and 0.88 | fraction unbound at 5 h, 10 μM ([11]; Fraction Unbound (fu), Run-specific Avg, average of one UC run (run date in line above)): 0.993 | fraction unbound at 5 h, 10 μM ([11]; Fraction Unbound (fu), replicates A, B, C, single replicate of one UC run (aqueous fraction / Time 5 hr)): 1 | fup (human plasma [12]; human plasma, 10 μM, ultracentrifugation, 37 °C): 1 | Fup.Med (human plasma [12]): 0.867 | Fup.point (human plasma [12]): 0.963 | Fraction Unbound (fu), replicates A, B, C (human plasma [12]; single replicate of one UC run (aqueous fraction / Time 5 hr)): 0.90 and 0.77 and 0.85 | Hep_Stab_Fail [4, 19]: 1

FC(F)(F)C(F)(C(F)(F)F)C(F)(F)C(F)(F)CC1CO1 (stereo not drawn) [3-(Perfluoro-3-methylbutyl)-1,2-propenoxide]
PPB_Stab_Fail (human plasma [1]; both, human, 5 h, 10 μM): 1 | remaining at 5 h, 10 μM (in vitro [8]): 0% | Hep_Stab_Fail ([4]; both, human, 120 min, 1 μM): 1

Cc1ccc([N+](=O)[O-])cc1 [4-Nitrotoluene, 4-nitrotoluene, reference compound]
Mean Stability (T5hr/T1hr) (human plasma [10]; mean over all UC runs and replicates, human plasma): 0.816 | Fstable.Med (human plasma [10]): 0.779 | Stability (T5hr/ T1hr), Run-specific Avg (human plasma [10]; run-specific average): 0.82 and 0.84 and 0.81 and 0.78 | fraction unbound at 5 h, 10 μM ([11]; Fraction Unbound (fu), Run-specific Avg, run-specific average): 0.06 | fraction unbound at 5 h, 10 μM ([11]; Mean Fu (fraction unbound), mean over all UC runs and replicates, human plasma): 0.0581 | Fup.Med (human plasma [12]): 0.0679 | Fup.point (human plasma [12]): 0.0612 | Fraction Unbound (fu), Run-specific Avg (human plasma [12]; run-specific average): 0.0534 and 0.08

FC(F)C(F)(F)COCC1CO1 (stereo not drawn) [((2,2,3,3-Tetrafluoropropoxy)methyl)oxirane]
remaining at 5 h, 10 μM [9]: 66% | PPB_Stab_Fail (human plasma [10]): 0 | Fstable.Med (human plasma [10]): 0.531 | fraction unbound at 5 h, 10 μM ([11]; Mean fu, fraction unbound in human plasma, ultracentrifugation, some values based on eLOQ): 0.841 | Fup.Med (human plasma [12]): 0.63 | Fup.point (human plasma [12]): 0.762 | Hep_Stab_Fail [4, 19]: 1

N.O=C(O)C(F)(F)C(F)(F)C(F)(F)C(F)(F)C(F)(F)C(F)(F)C(F)(F)F [Ammonium perfluorooctanoate (PFOA), Ammonium perfluorooctanoate, reference compound]
LOEC (human primary cells; [15]): 2.00 µM | LOEC (human primary cells; [16]): 2 µM | fup (human plasma [13]; [20]): 0.0006 | Css [3, 17]: 282.38 mg/L and 681.96 uM | Clhep [3]: 0.003 L/h | AED [3]: 0.0029 mg/kg/day | Fub [3]: 0.001091 | Css [3, 18]: 681.96 µM | Css ([3]; human steady-state plasma concentration, assuming 1 mg/kg/day dosage, listed as PFOA): 682 µM | CLint [3]: 47401.2 µL/min | Mean fu (human plasma [12]): 0.0006 | In Vitro Clint [14, 20]: 0.27 μL/min/10^6 cells

NS(=O)(=O)C(F)(F)C(F)(F)C(F)(F)C(F)(F)C(F)(F)C(F)(F)C(F)(F)C(F)(F)F [Perfluorooctanesulfonamide, reference compound]
LOEC (human primary cells; [15]): 2.00 µM | LOEC (human primary cells; [16]): 2 µM | fup (human plasma [13]): 0.0039 | fraction unbound at 5 h, 10 μM (in vitro [2]; Mean fu): 0.0039 | Css [3, 17]: 3.16 mg/L and 6.33 uM | Clhep [3]: 0.882 L/h | AED [3]: 0.3157 mg/kg/day | Fub [3]: 0.007091 | Css [3, 18]: 6.33 µM | CLint [3]: 2094431 µL/min | In Vitro Clint [14]: 11.93 μL/min/10^6 cells | hepatocyte CLint at 1 μM ([6]; hepatocytes, in vitro CLint): 11.9 µL/min/1e6 cells

O=S(=O)([O-])C(F)(F)C(F)(F)C(F)(F)C(F)(F)C(F)(F)C(F)(F)C(F)(F)C(F)(F)F.[K+] [Potassium perfluorooctanesulfonate, reference compound]
LOEC (human primary cells; [15]): 7.00 µM | LOEC (human primary cells; [16]): 7 µM | fup (human plasma [13]; [20]): 0.0040 | Css [3, 17]: 15.71 mg/L and 31.41 uM | Clhep [3]: 0.138 L/h | AED [3]: 0.2229 mg/kg/day | Fub [3]: 0.007273 | Css [3, 18]: 31.41 µM | CLint [3]: 317764 µL/min | Mean fu (human plasma [12]): 0.004 | In Vitro Clint [14, 20]: 1.81 μL/min/10^6 cells
